Data from US9326516B2, “Molecules having certain pesticidal utilities, and intermediates, compositions, and processes related thereto” (Dow AgroSciences LLC, priority 2014, dated 2016).

What was measured:
Type in all cases: in vivo
[1] = test system: Cabbage Looper (Trichoplusia ni, TRIPNI); assay: Bioassay on Cabbage Looper (CL), 128-well diet tray assay; conditions: 168 h, 50 μg/cm^2 on artificial diet, second instar CL larvae, 25° C., five to seven days, average of eight wells, read-out: CL % Control (or Mortality) rating
Description: (§1) Certain molecules disclosed in this document were tested against BAW and CEW using procedures described in the following examples. In the reporting of the results, the “BAW & CL Rating Table” was used (See Table Section).
Bioassays on CL were conducted using a 128-well diet tray assay, one to five second instar CL larvae were placed in each well (3 mL) of the diet tray that had been previously filled with 1 mL of artificial diet to which 50 μg/cm^2 of the test compound (dissolved in 50 μL of 90:10 acetone-water mixture) had been applied (to each of eight wells) and then allowed to dry. Trays were covered with a clear self-adhesive cover and held at 25° C., 14:10 light-dark for five to seven days. Percent mortality was recorded for the larvae in each well; activity in the eight wells was then averaged. The results are indicated in the table entitled “Table ABC: Biological Results” (See Table Section).

[2] = test system: Beet Armyworm (Spodoptera exigua, LAPHEG); assay: Bioassay on Beet Armyworm (BAW), 128-well diet tray assay; conditions: 168 h, 50 μg/cm^2 on artificial diet, second instar BAW larvae, 25° C., five to seven days, average of eight wells, read-out: BAW % Control (or Mortality) rating
Description: as §1
Bioassays on BAW were conducted using a 128-well diet tray assay. one to five second instar BAW larvae were placed in each well (3 mL) of the diet tray that had been previously filled with 1 mL of artificial diet to which 50 μg/cm^2 of the test compound (dissolved in 50 μL of 90:10 acetone-water mixture) had been applied (to each of eight wells) and then allowed to dry. Trays were covered with a clear self-adhesive cover and held at 25° C., 14:10 light-dark for five to seven days. Percent mortality was recorded for the larvae in each well; activity in the eight wells was then averaged. The results are indicated in the table entitled “Table ABC: Biological Results” (See Table Section).

[3] = test system: Yellow Fever Mosquito (Aedes aegypti, AEDSAE); conditions: about 1 day-old larvae, master plate 4000 ppm in DMSO diluted, room temperature, scored after 3 days on mortality
Description: Certain molecules disclosed in this document were tested against YFM using procedures described in the following paragraph. In the reporting of the results, the “YFM Rating Table” was used (See Table Section).
Master plates containing 400 μg of a molecule dissolved in 100 μL of dimethyl sulfoxide (DMSO) (equivalent to a 4000 ppm solution) are used. A master plate of assembled molecules contains 15 μL per well. To this plate, 135 μL of a 90:10 water:acetone mixture is added to each well. A robot (Biomek® NXP Laboratory Automation Workstation) is programmed to dispense 15 μL aspirations from the master plate into an empty 96-well shallow plate (“daughter” plate). There are 6 reps (“daughter” plates) created per master. The created daughter plates are then immediately infested with YFM larvae.
The day before plates are to be treated, mosquito eggs are placed in Millipore water containing liver powder to begin hatching (4 g. into 400 mL). After the daughter plates are created using the robot, they are infested with 220 μL of the liver powder/larval mosquito mixture (about 1 day-old larvae). After plates are infested with mosquito larvae, a non-evaporative lid is used to cover the plate to reduce drying. Plates are held at room temperature for 3 days prior to grading. After 3 days, each well is observed and scored based on mortality.

[4] = test system: Green Peach Aphid (Myzus persicae, MYZUPE); assay: Bioassay on Green Peach Aphid (GPA), foliar spray on cabbage seedlings; conditions: 72 h, 200 ppm spray on infested cabbage seedlings, graded after three days, Abbott corrected % control, read-out: GPA % Control (or Mortality) rating
Description: Certain molecules disclosed in this document were tested against GPA using procedures described in the following example. In the reporting of the results, the “GPA Rating Table” was used (See Table Section).
Cabbage seedlings grown in 3-inch pots, with 2-3 small (3-5 cm) true leaves, were used as test substrate. The seedlings were infested with 20-50 GPA (wingless adult and nymph stages) one day prior to chemical application. Four pots with individual seedlings were used for each treatment. Test compounds (2 mg) were dissolved in 2 mL of acetone/methanol (1:1) solvent, forming stock solutions of 1000 ppm test compound. The stock solutions were diluted 5× with 0.025% Tween 20 in water to obtain the solution at 200 ppm test compound. A hand-held aspirator-type sprayer was used for spraying a solution to both sides of […] leaves until runoff. Reference plants (solvent check) were sprayed with the diluent only containing 20% by volume of acetone/methanol (1:1) solvent. Treated plants were held in a holding room for three days at approximately 25° C. and ambient relative humidity (RH) prior to grading. Evaluation was conducted by counting the number of live aphids per plant under a microscope. Percent Control was measured by using Abbott's correction formula (W. S. Abbott, “A Method of Computing the Effectiveness of an Insecticide” J. Econ. Entomol. 18 (1925), pp. 265-267) as follows. Corrected % Control=100*(X−Y)/X where X=No. of live aphids on solvent check plants and Y=No. of live aphids on treated plants

Row | SMILES | mortality at 50 µg/cm2 [1] [%] | mortality at 50 µg/cm2 [2] [%] | YFM % Control (or Mortality) rating [3] | mortality at 200 ppm [4] [%]
1 | FC(F)(F)Oc1ccc(-n2cnc(-c3ccc(NC4=N[C@@H](c5ccccc5)CO4)cc3)n2)cc1 [Compound F2, (S)-4-Phenyl-N-(4-(1-(4-(trifluoromethoxy)phenyl)-1H-1,2,4-triazol-3-yl)phenyl)-4,5-dihydrooxazol-2-amine] | 50 to 100 | 50 to 100 | B (More than 0-Less than 80) | 80 to 100
2 | FC(F)(F)Oc1ccc(-n2cnc(-c3ccc(NC4=NC(c5ccc(C(F)(F)F)cc5)CO4)cc3)n2)cc1 (stereo not shown) [Compound F5, N-(4-(1-(4-(Trifluoromethoxy)phenyl)-1H-1,2,4-triazol-3-yl)phenyl)-4-(4-(trifluoromethyl)phenyl)-4,5-dihydrooxazol-2-amine] | 50 to 100 | 50 to 100 | B (More than 0-Less than 80) | 80 to 100
3 | FC(F)(F)Oc1ccc(-n2cnc(-c3ccc(NC4=NC(c5ccccc5Cl)CO4)cc3)n2)cc1 (stereo not shown) [Compound F11, 4-(2-Chlorophenyl)-N-(4-(1-(4-(trifluoromethoxy)phenyl)-1H-1,2,4-triazol-3-yl)phenyl)-4,5-dihydrooxazol-2-amine] | 50 to 100 | 50 to 100 | D (No activity noticed in this bioassay) | 0
4 | FC(F)(F)Oc1ccc(-n2cnc(-c3ccc(NC4=N[C@H](c5ccccc5)CCO4)cc3)n2)cc1 [Compound F20, (S)-4-Phenyl-N-(4-(1-(4-(trifluoromethoxy)phenyl)-1H-1,2,4-triazol-3-yl)phenyl)-5,6-dihydro-4H-1,3-oxazin-2-amine] | 50 to 100 | 0 | B (More than 0-Less than 80) | 80 to 100
5 | FC(F)(F)Oc1ccc(-n2cnc(-c3ccc(NC4=NC(c5ccc(Cl)cc5)CCO4)cc3)n2)cc1 (stereo not shown) [Compound F43, 4-(4-Chlorophenyl)-N-(4-(1-(4-(trifluoromethoxy)phenyl)-1H-1,2,4-triazol-3-yl)phenyl)-5,6-dihydro-4H-1,3-oxazin-2-amine] | 50 to 100 | 0 to 50 | B (More than 0-Less than 80) | 80 to 100
6 | Cc1ccc(C2CCOC(Nc3ccc(-c4ncn(-c5ccc(OC(F)(F)F)cc5)n4)cc3)=N2)cc1 (stereo not shown) [Compound F44, 4-(p-Tolyl)-N-(4-(1-(4-(trifluoromethoxy)phenyl)-1H-1,2,4-triazol-3-yl)phenyl)-5,6-dihydro-4H-1,3-oxazin-2-amine] | 50 to 100 | 0 to 50 | B (More than 0-Less than 80) | 80 to 100
7 | FC(F)(F)Oc1ccc(-n2cnc(-c3ccc(NC4=NC(c5ccc(C(F)(F)F)cc5)CCO4)cc3)n2)cc1 (stereo not shown) [Compound F45, N-(4-(1-(4-(Trifluoromethoxy)phenyl)-1H-1,2,4-triazol-3-yl)phenyl)-4-(4-(trifluoromethyl)phenyl)-5,6-dihydro-4H-1,3-oxazin-2-amine] | 50 to 100 | 50 to 100 | B (More than 0-Less than 80) | 80 to 100
